Experiment [1] deals with T1, avidin (Gallus gallus, UniProt P02701). As to the kind of experiment: protein-protein interaction assay: labeled avidin with biotinylated BSA in two parallel microfluidic channels. The format is binding.
Experiment [2] concerns the target biotinylated bovine serum albumin (bovine) (UniProt P02769). As to the kind of experiment: homogeneous pH modulation fluorescence assay in two parallel microfluidic channels; 3 uM labeled avidin, 500 nM biotinylated BSA, 150 mM NaCl, 10 mM PBS, pH 7.0.
Experiment [3] has as its target T1, avidin. Description: homogeneous biotin detection with ortho-TEXAS RED-conjugated avidin in microfluidic channels. The note with it: 200 μM biotin, 10 μM ortho-TEXAS RED-conjugated avidin, PBS, pH 8.2. The format is binding.
A further experiment deals with different kinases. The note with it: cited from earlier work.
Experiment [4] has as its target T2, calmodulin (Homo sapiens, UniProt P0DP23). The note with it: 1 M CaCl2, 66 μM dye-conjugated calmodulin, 10 mM Tris, 100 mM NaCl, pH 7.4.
Experiment [5] has as its target T2, calmodulin. The note with it: read-out: equilibrium dissociation constant; cited from earlier work.

T1 sequence (P02701 25-152): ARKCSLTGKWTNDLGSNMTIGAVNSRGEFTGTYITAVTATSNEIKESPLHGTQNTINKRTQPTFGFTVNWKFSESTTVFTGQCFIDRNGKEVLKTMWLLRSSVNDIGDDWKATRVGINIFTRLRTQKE
biotinylated bovine serum albumin (bovine), sequence (P02769 25-607 limits assumed): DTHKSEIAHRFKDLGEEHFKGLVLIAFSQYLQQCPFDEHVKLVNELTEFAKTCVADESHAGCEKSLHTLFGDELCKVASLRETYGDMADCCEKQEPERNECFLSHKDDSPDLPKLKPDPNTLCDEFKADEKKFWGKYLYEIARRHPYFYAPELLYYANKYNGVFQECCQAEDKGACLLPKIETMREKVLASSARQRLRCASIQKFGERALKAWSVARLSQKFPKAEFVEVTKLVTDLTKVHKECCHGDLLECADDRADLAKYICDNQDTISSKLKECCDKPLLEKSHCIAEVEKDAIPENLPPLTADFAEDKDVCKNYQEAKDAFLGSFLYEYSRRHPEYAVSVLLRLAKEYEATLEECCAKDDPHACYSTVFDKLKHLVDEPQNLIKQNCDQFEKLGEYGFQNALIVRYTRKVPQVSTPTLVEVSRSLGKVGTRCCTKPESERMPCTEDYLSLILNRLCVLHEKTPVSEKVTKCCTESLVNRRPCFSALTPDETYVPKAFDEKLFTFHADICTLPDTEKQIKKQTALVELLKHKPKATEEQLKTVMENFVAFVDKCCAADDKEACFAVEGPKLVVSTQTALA

As to “para-sulforhodamine 101 [para-TEXAS RED®]”, the “fluorescence difference between channels with and without biotinylated BSA, control dye” value on avidin [1] (control with para-TEXAS RED under identical conditions (500 nM biotinylated BSA, pH 7.0)) is “no difference between the two channels”.

The compound “ortho-TEXAS RED succinimidyl ester labeled avidin (from UniProt P02701 25-152)” had a fluorescence intensity with biotinylated BSA relative to the channel without it in experiment [2] of 8 fold.

As to `O=C(O)CCCC[C@@H]1SC[C@@H]2NC(=O)N[C@@H]21` [biotin], the “fluorescence intensity increase (factor) when biotin was present” value on avidin [3] is listed as “six”.

For “biotinylated BSA: biotinylated bovine serum albumin”, the “signal in channel with biotinylated BSA relative to channel without (times brighter)” value in the experiment with avidin [1] (500 nM biotinylated BSA, 3 μM ortho-TEXAS RED succinimidyl ester labeled avidin, 150 mM NaCl, 10 mM PBS, pH 7.0) is “approximately eight”.

For the compound `Nc1ncnc2c1ncn2[C@@H]1O[C@H](COP(=O)(O)OP(=O)(O)OP(=O)(O)O)[C@@H](O)[C@H]1O` [ATP, adenosine triphosphate], the “affinities of different kinases for ATP” value with different kinases is on record as “tens of nanomolar to hundreds of micromolar”.

For `[Ca+2].[Cl-].[Cl-]` [Ca^2+, calcium chloride], the “attenuation in fluorescence intensity (factor) when Ca2+ is present” value on calmodulin [4] is “two”. Moreover, at calmodulin [5], the Kd was 14 µM.

Values taken from US9285322B2, “pH modulation methods and systems for detecting binding events” (The Texas A&M University System, priority 2010, dated 2016).
